From patent US20210139610A1, “COMPOSITIONS AND METHODS FOR MEDIATING EPS” (priority 2018, published 2021)
“Also recorded” adds a separate entry of the source.

Legend:
[1] = test system: Non-typeable Haemophilus influenzae; assay: NTHI growth (absorbance at 490 nm, colony-forming units); format: cell-based; details: 16 h, supplemented BHI, up to 10 mM
Protocol: FIG. 13: Non-typeable Haemophilus influenzae were grown for 16 h in supplemented BHI media containing additives as indicated above in 96 well plates at 37° C. and 5% CO2. Growth was quantified by spectrophotometric absorbance at 490 nm (left) and by enumeration of colony-forming units (right).
(§1) Dicyclohexylamine inhibits spermidine synthase via a competitive inhibition mechanism, i.e. through binding to the same site on the protein as the putrescine substrate. Applicants therefore hypothesized that dicyclohexylamine would inhibit NTHi biofilm development.

[2] = test system: eDNA scaffold structure of NTHI biofilms; assay: eDNA scaffold structure in early (3 h) NTHI biofilms, dsDNA immunofluorescence; format: cell-based, Non-typeable Haemophilus influenzae; details: DCHA 50 μM
Protocol: FIGS. 3A-3C: Polyamine synthesis inhibitor reduces biofilm formation. (FIG. 3A) COMSTAT quantification of LIVE/DEAD® stained NTHI biofilms grown in the presence of dicyclohexylamine (DCHA, 50 μM), a spermidine (Spd) synthase inhibitor, Spd (1 mM), or both. Bars represent the SEM. Statistical significance compared to control was assessed by unpaired t-tests, *P<0.05. […] (FIG. 3B) Immunofluorescence microscopy images of eDNA scaffold structure in NTHI in vitro biofilms grown for 3 h in the presence of DCHA (50 μM). […] (FIG. 3C) Immunofluorescence CLSM images of NTHI in vitro biofilms grown for 40 h in the presence of DCHA. Probed for Spd (white dots in FIG. 3C lower panel) and counterstained with DAPI (gray regions).
FIG. 16: Surface attached non-typeable Haemophilus influenzae were grown for 3 h in supplemented BHI media containing additives as indicated above in Fluorodish coverglass dishes at 37° C. and 5% CO2. Biofilms were washed, probed with primary antibodies directed towards double stranded DNA and a fluorescent secondary antibody (white).
as §1

[3] = test system: spermidine in the NTHI biofilm matrix; assay: Immunofluorescence for spermidine in NTHI biofilm matrix; format: cell-based, Non-typeable Haemophilus influenzae; details: grown 40 h in presence of DCHA
Protocol: FIG. 15: Non-typeable Haemophilus influenzae biofilms were grown for 40 h in supplemented BHI media containing additives as indicated above in 8 well chambered coverglass slides at 37° C. and 5% CO2. Biofilms were washed, probed with primary antibodies directed towards spermidine, a fluorescent secondary antibody (dark gray dots), and stained with DAPI (gray regions).
as §1

[4] = test system: spermidine levels in UPEC biofilms; format: cell-based
[5] = test system: Non-typeable Haemophilus influenzae biofilms; assay: NTHI in vitro biofilm formation, additive present from seeding (LIVE/DEAD, CLSM, COMSTAT); format: cell-based; details: for NTHI biofilm formation (average thickness, biomass): DCHA 50 μM
Protocol: FIG. 14: Non-typeable Haemophilus influenzae biofilms were grown for 40 h in supplemented BHI medium containing additives as indicated below each bar in 8 well chambered coverglass slides at 37° C. and 5% CO2. Biofilms were washed, stained with LIVE/DEAD®, fixed, and imaged by CLSM. Biofilm parameters were quantified using COMSTAT software.
Dicyclohexylamine inhibits spermidine synthase via a competitive inhibition mechanism, i.e. through binding to the same site on the protein as the putrescine substrate. Applicants therefore hypothesized that dicyclohexylamine would inhibit NTHi biofilm development. […]

DNABII proteins = DNABII proteins in NTHI biofilm and culture media (immunofluorescence, Western blot); format: cell-based, Non-typeable Haemophilus influenzae; details: HMGB1 treatment at 24 h, read at 40 h
Protocol: FIGS. 38A-38C: HMGB1 displaces DNABII proteins thereby disrupting NTHI biofilms. Non-typeable Haemophilus influenzae biofilms were grown in supplemented BHI media in 8 well chambered coverglass slides at 37° C. and 5% CO2. After 24 h, biofilms were treated as indicated. (FIG. 38A) After 40 h, biofilms were washed, probed with primary antibodies directed against DNABII proteins (light gray dots), a fluorescent secondary antibody, stained with DAPI (gray regions), and visualized via fluorescence microscopy. (FIG. 38B) Media from biofilm cultures was collected and analyzed via Western blot with a primary antibody that recognizes DNABII proteins. […] (FIG. 38C) COMSTAT quantification NTHI biofilms stained with LIVE/DEAD® and visualized with confocal microscopy after treatment with 5 mg/mL HMGB1.

[6] = test system: NTHI biofilms in the middle ear; assay: Chinchilla model of otitis media due to NTHI, middle ear biofilm scoring; format: in vivo; details: 5 μg to middle ears at 4 and 5 days post infection, scored 24 h later
Protocol: FIGS. 39A-39B: HMGB1 promotes biofilm resolution in an experimental model (chinchilla host) of OM. Diluent or 5 μg rHMGB1 or mHMGB1 were delivered directly to middle ears of chinchillas at 4 and 5 days post infection with NTHI. Animals were sacrificed 24 h later, and their middle ears were imaged (FIG. 39A) and blindly scored (FIG. 39B) based on the criteria described in the bottom of (FIG. 39A). Bars represent SEM. ***P<0.001.

B. cenocepacia = assay: Mouse lung infection with B. cenocepacia (aggregates, CFU in BAL); format: in vivo, C57BL/6 mice; details: 10^7 CFU i.t. with simultaneous 5 mg rHMGB1 or mHMGB1, 18 h
Protocol: (§2) (FIG. 40A) B. cenocepacia biofilms were grown in LB media in 8 well chambered coverglass slides at 37° C. and 5% CO2. After 24 h, biofilms were treated 5 mg/mL HMGB1. After a total of 40 h, biofilms were stained with LIVE/DEAD®, visualized via CLSM and analyzed by COMSTAT. Bars represent the SEM. (FIG. 40B) C57BL/6 mice were infected with 10^7 CFU i.t., and simultaneously received 5 mg rHMGB1 or mHMGB1, a C45 S non-inflammatory variant. Aggregates of B. cenocepacia were visible by fluorescence microscopy in sections probed with an α-B. cenocepacia antibody (gray). After 18 h, (FIG. 40C) CFUs were quantified in BAL. Bars represent SD. *P<0.05, ***P<0.001.

[7] = test system: Z-DNA and B-DNA in the NTHI biofilm extracellular matrix; assay: Immunofluorescence CLSM for Z-DNA / B-DNA in NTHI biofilms; format: cell-based, Non-typeable Haemophilus influenzae; details: HMGB1 treatment at 24 h, read at 40 h
Protocol: FIG. 31: DNase degrades B-DNA, but not Z-DNA, within the biofilm extracellular matrix. DNase (Pulmozyme; 5 units) was added at 24 h after biofilm seeding to in vitro pre-formed NTHI biofilms.
FIG. 37: HMGB1 destabilizes Z-DNA structures in the biofilm extracellular matrix. Non-typeable Haemophilus influenzae biofilms were grown in supplemented BHI media in 8 well chambered coverglass slides at 37° C. and 5% CO2. After 24 h, biofilms were treated as indicated above. After 40 h, biofilms were washed, probed with primary antibodies directed against Z-DNA (light gray dots), a fluorescent secondary antibody, stained with DAPI (gray regions), and visualized via fluorescence microscopy.
FIGS. 50A-50B: Equilibrium shift of B-DNA to Z-DNA conversion alters biofilm formation. NTHI biofilms formed for 24 h were incubated with cerium chloride (CeCl3) or chloroquine for an additional 16 h and were probed with naive or anti-Z-DNA (white) by immunofluorescence CLSM.
FIGS. 51A-51B: Equilibrium shift of B-DNA to Z-DNA conversion alters biofilm formation. NTHI biofilms formed for 24 h were incubated with cerium chloride (CeCl3) (FIG. 51A) or chloroquine (FIG. 51B) for an additional 16 h. Z-DNA was measured by IF and CLSM using anti-Z-DNA and cells were stained with the membrane stain FM4-64. Bars represent the SEM. Statistical significance compared to control was assessed by paired t-tests, *P<0.05, **P<0.01.

poly(dG-dC) substrate = poly(dG-dC) substrate nuclease degradation (gel electrophoresis); format: biochemical; details: in presence of protective concentrations of spermidine/polyamines
Protocol: FIG. 32: Z-DNA formation protects DNA from nuclease degradation. A poly(dG-dC) substrate was incubated with salt activated nuclease (SAN) or DNase I in increasing concentrations of NaCl, spermine, or spermidine as indicated above. Degradation products were visualized by gel electrophoresis. High salt and polyamines protect DNA from degradation through conversion to the Z-DNA form.
FIGS. 34A-34B: DNABII proteins protect DNA by shifting to Z-DNA form. (FIG. 34A) A poly(dG-dC) substrate was incubated with DNase I in increasing concentrations of NTHi HU as indicated above. Degradation products were visualized by gel electrophoresis. […] (FIG. 34B) Top: Circular dichroism spectrum of a B-DNA substrate being converted to Z-DNA by increasing concentrations of a Z-DNA catalyst (adapted from Rahmouni (1992) Mol Microbiol. 6(5):569-72). Note inversion of negative peak around 250 nm and positive peak around 280 nm. Bottom: Poly(dGdC) DNA (5 μg) was incubated with HU (15 μM) for 2 h and CD spectra collected.
FIG. 41: HMGB1 reverts polyamine-induced Z-DNA to a nuclease sensitive B-DNA state. A poly(dG-dC) substrate was incubated with spermidine and HMGB1. Degradation products were visualized by gel electrophoresis.

preformed NTHI biofilms = assay: Disruption of pre-formed NTHI biofilms (treatment after initial growth; LIVE/DEAD, CLSM, COMSTAT); format: cell-based, Non-typeable Haemophilus influenzae; details: 5 mg/mL HMGB1, treated at 24 h
B. cenocepacia biofilms = assay: Burkholderia cenocepacia in vitro biofilm disruption (COMSTAT); format: cell-based; details: 5 mg/mL HMGB1 at 24 h, total 40 h
Protocol: as §2

[8] = test system: Non-typeable Haemophilus influenzae biofilms; assay: NTHI in vitro biofilm formation, additive present from seeding (LIVE/DEAD, CLSM, COMSTAT); format: cell-based; details: RNase A present from seeding, 16 h
[9] = listed as spermidine synthase inhibitor
[10] = listed as Dicyclohexylamine (DCHA)
[11] = listed as dicyclohexylamine (DCHA)
[12] = 50 μM dicyclohexylamine, 40 h, COMSTAT

Molecule: C1CCC(NC2CCCCC2)CC1 [dicyclohexylamine]
- NTHi growth [1]: did not affect NTHi growth up to 10 mM
- NTHi growth ([1]; listed as DCHA): did not affect NTHI growth
- NTHi growth [1, 9]: did not affect normal growth
- eDNA scaffold structure amount and complexity ([2]; listed as DCHA): inhibited production of the eDNA scaffold; also recorded: eDNA scaffold structure production is greatly reduced
- eDNA scaffold structure amount and complexity ([2]; listed as Dicyclohexylamine): reduced the amount and the complexity of eDNA scaffold structures
- eDNA scaffold structure amount and complexity [2, 9]: reduced both the presence and complexity of the extracellular DNA structure
- spermidine / polyamine presence in NTHI biofilm matrix [3]: statistically significant corresponding decrease in spermidine present in the biofilm matrix
- spermidine / polyamine presence in NTHI biofilm matrix ([3]; listed as DCHA): reduced extracellular polyamine incorporation into the biofilm EPS; also recorded: inhibits polyamine incorporation into the biofilm EPS
- spermidine / polyamine presence in NTHI biofilm matrix [3, 10]: reduces spermidine levels in NTHI and UPEC biofilms
- spermidine / polyamine presence in NTHI biofilm matrix [3, 11]: an overall decrease in spermidine levels as measured by IF
- spermidine / polyamine presence in NTHI biofilm matrix [3, 9]: reduced spermidine presence in the biofilm matrix
- spermidine levels in UPEC biofilms [4]: reduces spermidine levels in NTHI and UPEC biofilms
- biofilm roughness ([5]; 50 μM dicyclohexylamine, 40 h): increasing biofilm roughness
- reduction of biofilm biomass [5, 12]: approximately 40%
- reduction of biofilm thickness [5, 12]: approximately 40%
- NTHI biofilm formation (average thickness, biomass) [5]: significantly inhibited NTHi biofilm formation
- NTHI biofilm formation (average thickness, biomass) ([5]; listed as DCHA): inhibited biofilm biogenesis in vitro, decreasing average thickness and biomass; also recorded: Average thickness of biofilms was decreased
- NTHI biofilm formation (average thickness, biomass) ([5]; listed as Dicyclohexylamine): inhibited biofilm biogenesis
- NTHI biofilm formation (average thickness, biomass) [5, 10]: significantly decreased average thickness compared to sBHI control
- NTHI biofilm formation (average thickness, biomass) [5, 11]: a significant decrease in biofilm average thickness

Molecule: HMGB1: high mobility group box 1 protein, eukaryotic chromatin protein of 215 amino acids
- DNABII proteins in / released from the biofilm matrix (DNABII proteins): DNABII proteins were released from the biofilm; also recorded: displaced DNABII proteins from the biofilm matrix
- resolution of middle ear NTHI biofilms [6]: efficient resolution of adherent biofilms; also recorded: promoted clearance of pre-existing NTHI biofilms in situ
- B. cenocepacia aggregate biofilm in lungs (B. cenocepacia): prevented B. cenocepacia aggregate biofilm formation in the lungs of mice; also recorded: significantly disrupts B. cenocepacia biofilms in situ
- Z-DNA content of NTHI biofilm matrix [7]: diminished Z-DNA content; also recorded: reduced Z-DNA structures in the biofilm matrix
- nuclease sensitivity of poly(dG-dC) substrate (poly(dG-dC) substrate): restored nuclease sensitivity to spermidine-induced Z-DNA substrates
- NTHI biofilm disruption (preformed NTHI biofilms): significant biofilm disruption; also recorded: disrupts biofilms by displacing DNABII proteins
- B. cenocepacia biofilm disruption in vitro (B. cenocepacia biofilms): effective at disrupting biofilms formed in vitro by Burkholderia cenocepacia; also recorded: disrupts Burkholderia cenocepacia biofilms

B1: RNase A: ribonuclease (protein, UniProt P61823 27-150, looked up)
Ribonuclease pancreatic: KETAAAKFERQHMDSSTSAASSSNYCNQMMKSRNLTKDRCKPVNTFVHESLADVQAVCSQKNVACKNGQTNCYQSYSTMSITDCRETGSSKYPNCAYKTTQANKHIIVACEGNPYVPVHFDASV
- NTHI biofilm formation [8]: stimulated biofilm formation in a dose-dependent manner
